The results in this text go back to PubChem BioAssay (NCI).

Structures are written as SMILES. “And” between values parts separate entries of the source, which are not always exact repeats. Identical values can stand only once.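 Exposure lasted 48 hours, with cells grown in 96-well plates and compounds tested at five concentrations. The concentration for 50% growth inhibition is given as GI50. TGI: concentration producing complete growth inhibition.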 Some results are limits rather than exact numbers.

Some test systems named below: NCI-H23 lung; UACC-257 melanoma; SW-620 colon; ACHN renal; SF-268 CNS; M19-MEL melanoma; NCI-H460 lung; LXFL 529 NSCLC; HCT-116 colon; OVCAR-3 ovarian.
Experiment in all cases: NCI tumour cell line growth inhibition, 48 h

As to `COC(=O)c1nn(C(=N)c2ccc(Cl)cc2)c2c1CCC2`, the TGI in the experiment on NCI-H23 lung, with UACC-257 melanoma, in the experiment on SW-620 colon, in the experiment on ACHN renal, with SF-268 CNS and in the experiment on M19-MEL melanoma was above 100 µM throughout. For the same compound, the TGI in the experiment with NCI-H460 lung, in the experiment on LXFL 529 NSCLC and with HCT-116 colon was above 100 µM in each case.

For `O=[N+]([O-])c1ccc(C=NC23CC4CC(CC(C4)C2)C3)cc1`, the TGI in the experiment with NCI-H23 lung, in the experiment with UACC-257 melanoma, in the experiment with ACHN renal, in the experiment with SF-268 CNS, in the experiment on M19-MEL melanoma and with NCI-H460 lung was above 100 µM each time. In addition, the TGI with OVCAR-3 ovarian, in the experiment on LXFL 529 NSCLC and in the experiment on HCT-116 colon was above 100 µM throughout.

In the case of `CNCCN=c1ccc2c3c1c(O)c1c(O)ccc(=O)c1c3[nH]n2CCNCCO`, the TGI in the experiment with NCI-H23 lung is 2.75 µM; in the experiment with UACC-257 melanoma, 7 µM; with ACHN renal, 0.708 µM and 0.259 µM; in the experiment with SF-268 CNS, 2.57 µM; in the experiment on M19-MEL melanoma it was 2.72 µM and 1.13 µM; in the experiment with NCI-H460 lung, 1.21 µM. Also, the TGI was 3.99 µM and 5.12 µM in the experiment on OVCAR-3 ovarian; 4.9 µM and 5.37 µM with HCT-116 colon. Moreover, the GI50 is 0.0844 µM and 0.0775 µM in the experiment with ACHN renal; 0.147 µM and 0.179 µM with M19-MEL melanoma; 0.000851 µM with NCI-H460 lung; 1.16 µM in the experiment on OVCAR-3 ovarian; 0.207 µM with HCT-116 colon.

In the case of `Cc1ccc(Sc2cc3c(oc2=O)-c2ccccc2OC3O)cc1` (stereo unspecified), the GI50 with NCI-H23 lung is 27.7 µM; in the experiment with UACC-257 melanoma, 22.3 µM; in the experiment on SW-620 colon it was 22.4 µM; in the experiment with ACHN renal, 24.8 µM; in the experiment with SF-268 CNS, 30.3 µM; with NCI-H460 lung it was 22.4 µM. In addition, the GI50 was 33.3 µM in the experiment on OVCAR-3 ovarian and 25.6 µM in the experiment with HCT-116 colon. Moreover, the TGI in the experiment on NCI-H23 lung turned out to be 55.3 µM; in the experiment on UACC-257 melanoma, 43.8 µM; in the experiment with SW-620 colon, 52.3 µM; in the experiment on ACHN renal it was 57.3 µM; in the experiment with SF-268 CNS it was 88.6 µM; with NCI-H460 lung, 54.5 µM. For the same compound, the TGI with OVCAR-3 ovarian worked out at 91.4 µM; with HCT-116 colon it was 59.4 µM.

In the case of `CC(C)=CCCC(C)C1=C(O)C(=O)C(C)=CC1=O` (stereo unspecified), the TGI is 34 µM with NCI-H23 lung; 26.1 µM in the experiment on UACC-257 melanoma; above 50.4 µM with SW-620 colon; 3.98 µM in the experiment on ACHN renal; 56.6 µM in the experiment on SF-268 CNS; above 100 µM in the experiment with NCI-H460 lung. The results for the TGI in the experiment with OVCAR-3 ovarian and with HCT-116 colon were 18.3 µM and 12.8 µM, respectively.

`N.N.O=P([O-])([O-])C1(P(=O)([O-])[O-])CCCCCN1.[Pt+2]`: the GI50 is above 100 µM with NCI-H23 lung; above 100 µM with UACC-257 melanoma; above 100 µM in the experiment with SW-620 colon; above 100 µM in the experiment on ACHN renal; 76.6 µM in the experiment on SF-268 CNS; above 100 µM with NCI-H460 lung. The GI50 in the experiment on OVCAR-3 ovarian, in the experiment with LXFL 529 NSCLC and in the experiment on HCT-116 colon was above 100 µM in each case. Further, the TGI with NCI-H23 lung, in the experiment on UACC-257 melanoma, in the experiment on SW-620 colon, in the experiment on ACHN renal, with SF-268 CNS and with NCI-H460 lung was above 100 µM in each case. Besides, the TGI with OVCAR-3 ovarian, in the experiment with LXFL 529 NSCLC and in the experiment on HCT-116 colon was above 100 µM throughout.

On to `Cc1coc2c1C(OC(=O)C(C)C)C1(C)C(C)CCC(O)C1C2=O` (stereo unspecified), for which the TGI in the experiment with NCI-H23 lung, with UACC-257 melanoma, in the experiment on SW-620 colon, with ACHN renal, in the experiment with SF-268 CNS and with NCI-H460 lung was above 100 µM in each case. For the same compound, the TGI in the experiment on OVCAR-3 ovarian and with HCT-116 colon was above 100 µM throughout.

As to `CN(C)CCCn1c(-c2nonc2N)nc2cnccc21`, the GI50 with NCI-H23 lung, in the experiment with UACC-257 melanoma, with SW-620 colon, in the experiment with ACHN renal, in the experiment on SF-268 CNS and in the experiment on NCI-H460 lung was above 25 µM in each case. Moreover, the GI50 with OVCAR-3 ovarian and with HCT-116 colon was above 25 µM throughout. The TGI with NCI-H23 lung, in the experiment with UACC-257 melanoma, with SW-620 colon, in the experiment on ACHN renal, in the experiment on SF-268 CNS and with NCI-H460 lung was above 25 µM in each case. In addition, the TGI in the experiment on OVCAR-3 ovarian and with HCT-116 colon was above 25 µM in each case.

On to `CCC[CH2][Sn]1([CH2]CCC)[O]CC(C)[O]1` (stereo unspecified), for which the GI50 in the experiment with NCI-H23 lung was 0.749 µM; in the experiment on UACC-257 melanoma, 1.07 µM; in the experiment with SW-620 colon, 0.46 µM; in the experiment with ACHN renal it was 1.54 µM; in the experiment on M19-MEL melanoma, 0.803 µM; in the experiment with NCI-H460 lung it was 2.94 µM. In addition, the figures for the GI50 with OVCAR-3 ovarian, with LXFL 529 NSCLC and with HCT-116 colon were 1.37 µM, 0.149 µM and 1.78 µM, respectively. Moreover, the TGI in the experiment on NCI-H23 lung stood at 2.08 µM; with UACC-257 melanoma, 2.56 µM; with SW-620 colon it was 1.83 µM; in the experiment with ACHN renal it was 2.89 µM; in the experiment on M19-MEL melanoma, 2.23 µM; in the experiment with NCI-H460 lung, 13.9 µM. Besides, the TGI stood at 2.67 µM with OVCAR-3 ovarian, 1.35 µM in the experiment with LXFL 529 NSCLC and 3.43 µM with HCT-116 colon.

Consider `C[C@@H]1COCCN1c1cc(C2(O)C[C@H]3CC[C@@H](C2)O3)c2cnn(-c3ccn[nH]3)c2n1` (stereo partly specified), for which the GI50 was 0.0286 µM with NCI-H23 lung; 0.168 µM in the experiment on UACC-257 melanoma; 0.187 µM with SW-620 colon; 0.0316 µM with ACHN renal; 0.111 µM with SF-268 CNS; 0.0334 µM in the experiment with NCI-H460 lung. Moreover, the GI50 in the experiment on OVCAR-3 ovarian was 0.0874 µM; in the experiment on HCT-116 colon it was 0.118 µM. Besides, the TGI is 0.188 µM in the experiment on NCI-H23 lung; 1.42 µM with UACC-257 melanoma; above 37.7 µM in the experiment with SW-620 colon; 0.353 µM in the experiment on ACHN renal; 2.04 µM with SF-268 CNS; 1.43 µM with NCI-H460 lung. Besides, the TGI is 0.862 µM in the experiment with OVCAR-3 ovarian and above 100 µM with HCT-116 colon.
